Reference: patent US12570655B2, “Cysteine covalent modifiers of AKT1 and uses thereof” (Terremoto Biosciences, Inc., priority 2023, dated 2026)
Like-named read-outs stand apart in the source and are kept apart here.

Columns and labels:
Assay type in all cases: cell-based
[1] = molecular target: T1, AKT1 E17K (Homo sapiens, UniProt P31749, E17K); assay: Live cell AKT1 E17K target engagement by NanoBRET competitive probe displacement; details: HEK293 cells transfected with kinase-NanoLuciferase fusion, 2 h at 37° C.
T1 construct: expressed in transfected cells; host or cells: HEK293
In short: (§1)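 NanoLuc-kinase fusions, HEK293, transfected overnight; compound serial dilution + ATP-competitive fluorescent tracer at ~EC50; 2 h, 37 °C. Read 460/600 nm with extracellular NanoLuc inhibitor; BRET = E600/E460; IC50 by Hill fit.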

[2] = molecular target: T2, AKT2 (Homo sapiens, UniProt P31751); assay: Live cell AKT2 target engagement by NanoBRET competitive probe displacement; details: HEK293 cells transfected with kinase-NanoLuciferase fusion, 2 h at 37° C.
T2 construct: expressed in transfected cells; host or cells: HEK293
In short: as §1

[3] = molecular target: T3, AKT1 WT (Homo sapiens, UniProt P31749); assay: Live cell AKT1 WT target engagement by NanoBRET competitive probe displacement; details: HEK293 cells transfected with kinase-NanoLuciferase fusion, 2 h at 37° C.
T3 construct: expressed in transfected cells; host or cells: HEK293
In short: as §1

[4] = test system: LAPC4 prostate cancer cells; assay: Antiproliferative effects in LAPC4 cells (CellTiter Glo); details: LAPC4 cells (AKT1 E17K allele), read-out: LAPC4 proliferation IC50
In short: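 Luminescent ATP read-out (CellTiter Glo) after 72 h compound exposure; 1,000 cells/well in IMDM + 12% FBS + 1% P/S. IC50 by Hill equation fit of luminescence vs. log(inhibitor).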

T3 sequence (P31749 whole entry, the tested form may be a part): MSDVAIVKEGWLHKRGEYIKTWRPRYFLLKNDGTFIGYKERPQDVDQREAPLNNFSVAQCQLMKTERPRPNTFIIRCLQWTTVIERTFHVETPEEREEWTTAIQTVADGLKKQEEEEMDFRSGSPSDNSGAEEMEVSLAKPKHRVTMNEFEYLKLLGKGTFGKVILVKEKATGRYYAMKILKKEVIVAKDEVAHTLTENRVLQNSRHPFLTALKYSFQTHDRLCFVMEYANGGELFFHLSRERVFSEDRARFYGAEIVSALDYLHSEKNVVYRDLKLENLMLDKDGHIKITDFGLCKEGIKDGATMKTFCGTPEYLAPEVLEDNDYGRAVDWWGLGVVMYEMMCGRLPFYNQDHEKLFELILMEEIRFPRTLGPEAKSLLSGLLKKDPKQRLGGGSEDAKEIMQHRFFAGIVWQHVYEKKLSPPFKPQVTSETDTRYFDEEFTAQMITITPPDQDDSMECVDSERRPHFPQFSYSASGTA
T2 sequence (P31751 whole entry, the tested form may be a part): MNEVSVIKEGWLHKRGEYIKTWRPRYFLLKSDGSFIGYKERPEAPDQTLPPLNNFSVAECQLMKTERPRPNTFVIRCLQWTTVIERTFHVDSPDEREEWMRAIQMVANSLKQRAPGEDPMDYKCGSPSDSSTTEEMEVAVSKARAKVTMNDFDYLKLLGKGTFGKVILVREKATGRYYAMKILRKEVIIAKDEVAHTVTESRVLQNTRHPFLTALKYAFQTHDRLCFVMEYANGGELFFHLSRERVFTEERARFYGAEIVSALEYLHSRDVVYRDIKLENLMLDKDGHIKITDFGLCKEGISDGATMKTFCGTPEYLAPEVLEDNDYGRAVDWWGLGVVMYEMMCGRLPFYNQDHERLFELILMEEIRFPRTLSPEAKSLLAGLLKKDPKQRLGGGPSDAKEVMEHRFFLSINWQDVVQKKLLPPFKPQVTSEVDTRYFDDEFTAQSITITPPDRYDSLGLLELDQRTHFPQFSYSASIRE
T1 sequence (P31749 whole entry E17K, the tested form may be a part): as the sequence (P31749 whole entry, the tested form may be a part) above, with E17K counted along it

SMILES	IC50 [1]	IC50 [2]	IC50 [3]	IC50 ([4]; 72 h)	IC50 ([4]; Homo sapiens, LAPC4, 72 h)
C=CC(=O)N1CCC(N[C@@H]2c3ccc(-n4c(-c5cccnc5N)nc5ccc(-n6ccc(OC)n6)nc54)cc3CC2F)CC1 (single isomer, unassigned) [Example 287, 1-(4-(((1R,2*)-5-(2-(2-aminopyridin-3-yl)-5-(3-methoxy-1H-pyrazol-1-yl)-3H-imidazo[4,5-b]pyridin-3-yl)-2-fluoro-2,3-dihydro-1H-inden-1-yl)amino)piperidin-1-yl)prop-2-en-1-one]	7.68 nM	41.8 nM	227 nM	110 nM	
C=CC(=O)N1CCC(N[C@H]2CCc3cc(-n4c(-c5cccnc5N)nc5ccc(-n6nccn6)nc54)ccc32)CC1 [Example 33, 1-(4-{[(1S)-5-[2-(2-aminopyridin-3-yl)-5-(1,2,3-triazol-2-yl)imidazo[4,5-b]pyridin-3-yl]-2,3-dihydro-1H-inden-1-yl]amino}piperidin-1-yl)prop-2-en-1-one]	20.7 nM	152 nM	21.2 nM		52 nM
C=CC(=O)N1C[C@H]2CCC[C@@H](C1)C2N[C@H]1CCc2cc(-n3c(-c4cccnc4N)nc4ccc(-n5cccn5)nc43)ccc21 (single isomer, unassigned) [Example 189, 1-((1R,5S,9*)-9-(((S)-5-(2-(2-aminopyridin-3-yl)-5-(1H-pyrazol-1-yl)-3H-imidazo[4,5-b]pyridin-3-yl)-2,3-dihydro-1H-inden-1-yl)amino)-3-azabicyclo[3.3.1]nonan-3-yl)prop-2-en-1-one]	60.9 nM	740 nM	1470 nM	1370 nM	
C=CC(=O)N1CCC(N[C@H]2CCc3cc(-n4c(-c5cccnc5N)nc5ccc(C6CC6)nc54)ccc32)C(F)C1 (mixture of isomers) [Example 175, 1-(4-(((S)-5-(2-(2-aminopyridin-3-yl)-5-cyclopropyl-3H-imidazo[4,5-b]pyridin-3-yl)-2,3-dihydro-1H-inden-1-yl)amino)-3-fluoropiperidin-1-yl)prop-2-en-1-one]	17.9 nM	123 nM	820 nM		271 nM
C=CC(=O)N1CCC(N[C@H]2CCc3cc(-n4c(-c5cccnc5N)nc5ccc(N6CCC(F)CC6)nc54)ccc32)CC1 [Example 238, 1-(4-{[(1S)-5-[2-(2-aminopyridin-3-yl)-5-(4-fluoropiperidin-1-yl)imidazo[4,5-b]pyridin-3-yl]-2,3-dihydro-1H-inden-1-yl]amino}piperidin-1-yl)prop-2-en-1-one]	37.2 nM	666 nM	679 nM		667 nM
Nc1ncccc1-c1nc2ccc(-n3cccn3)nc2n1-c1ccc2c(c1)CC[C@@H]2NC1CCN(C(=O)[C@H]2CO2)CC1 [Example 122, 3-{3-[(1S)-1-({1-[(2R)-oxirane-2-carbonyl]piperidin-4-yl}amino)-2,3-dihydro-1H-inden-5-yl]-5-(pyrazol-1-yl)imidazo[4,5-b]pyridin-2-yl}pyridin-2-amine]	112 nM	305 nM	41.3 nM		116 nM
C=CC(=O)N1CCC(N[C@H]2CCc3cc(-n4c(-c5cccnc5N)nc5ccc(-c6ccn(C(F)F)n6)nc54)ccc32)CC1 [Example 107, 1-(4-{[(1S)-5-[2-(2-aminopyridin-3-yl)-5-[1-(difluoromethyl)pyrazol-3-yl]imidazo[4,5-b]pyridin-3-yl]-2,3-dihydro-1H-inden-1-yl]amino}piperidin-1-yl)prop-2-en-1-one]	18.1 nM	192 nM	6.19 nM		164 nM
C=CC(=O)N1CCN(NC2CCc3cc(-n4c(-c5cccnc5N)nc5ccc(-n6ccc(F)n6)nc54)ccc32)CC1 (single isomer, unassigned) [Example 201, 1-(4-{[(1*)-5-[2-(2-aminopyridin-3-yl)-5-(3-fluoropyrazol-1-yl)imidazo[4,5-b]pyridin-3-yl]-2,3-dihydro-1H-inden-1-yl]amino}piperazin-1-yl)prop-2-en-1-one]	10.2 nM	41 nM	96.8 nM	127 nM	
C=CC(=O)N1CCC(CN[C@H]2CCc3cc(-n4c(-c5cccnc5N)nc5ccc(-n6cccn6)nc54)ccc32)(OC)CC1 [Example 183, 1-[4-({[(1S)-5-[2-(2-aminopyridin-3-yl)-5-(pyrazol-1-yl)imidazo[4,5-b]pyridin-3-yl]-2,3-dihydro-1H-inden-1-yl]amino}methyl)-4-methoxypiperidin-1-yl]prop-2-en-1-one]	99.4 nM	633 nM	1260 nM		1600 nM
C=CC(=O)N1CCC(N[C@@H]2c3ccc(-n4c(-c5cccnc5N)nc5ccc(-n6cccn6)nc54)cc3CC2F)C[C@H]1C (single isomer, unassigned) [Example 145, 1-((2R,4*)-4-(((1R,2*)-5-(2-(2-aminopyridin-3-yl)-5-(1H-pyrazol-1-yl)-3H-imidazo[4,5-b]pyridin-3-yl)-2-fluoro-2,3-dihydro-1H-inden-1-yl)amino)-2-methylpiperidin-1-yl)prop-2-en-1-one]	187 nM	1030 nM	29.7 nM	436 nM	

Second part, the compound after the results:

IC50 [1]	IC50 [2]	IC50 [3]	IC50 ([4]; 72 h)	IC50 ([4]; Homo sapiens, LAPC4, 72 h)	SMILES
9.26 nM	40.4 nM	8.19 nM	40.7 nM		C=CC(=O)N1CCC(N[C@H]2CCc3cc(-n4c(-c5cccnc5N)nc5ccc(-n6cccn6)nc54)ccc32)C(OC)C1 (single isomer, unassigned) [Example 115, 1-((3*,4*)-4-(((S)-5-(2-(2-aminopyridin-3-yl)-5-(1H-pyrazol-1-yl)-3H-imidazo[4,5-b]pyridin-3-yl)-2,3-dihydro-1H-inden-1-yl)amino)-3-methoxypiperidin-1-yl)prop-2-en-1-one]
38 nM	61 nM	12.5 nM	93.3 nM		C=CC(=O)N1CCN(NC2CCc3cc(-n4c(-c5cccnc5N)nc5ccc(-n6cccn6)nc54)ccc32)CC1 (single isomer, unassigned) [Example 148, (*)-1-(4-((5-(2-(2-aminopyridin-3-yl)-5-(1H-pyrazol-1-yl)-3H-imidazo[4,5-b]pyridin-3-yl)-2,3-dihydro-1H-inden-1-yl)amino)piperazin-1-yl)prop-2-en-1-one]
20.1 nM	22 nM	11.9 nM		144 nM	C=CC(=O)Nc1cccc(F)c1C(=O)N[C@H]1CCc2cc(-n3c(-c4cccnc4N)nc4ccc(-n5cccn5)nc43)ccc21 [Example 6, N-[(1S)-5-[2-(2-aminopyridin-3-yl)-5-(pyrazol-1-yl)imidazo[4,5-b]pyridin-3-yl]-2,3-dihydro-1H-inden-1-yl]-2-fluoro-6-(prop-2-enamido)benzamide]
19 nM	86.3 nM	16 nM	74.4 nM		C=CC(=O)N1C[C@H]2COC[C@@H](C1)C2N[C@H]1CCc2cc(-n3c(-c4cccnc4N)nc4ccc(-n5cccn5)nc43)ccc21 (single isomer, unassigned) [Example 73, 1-((1R,5S,9*)-9-(((S)-5-(2-(2-aminopyridin-3-yl)-5-(1H-pyrazol-1-yl)-3H-imidazo[4,5-b]pyridin-3-yl)-2,3-dihydro-1H-inden-1-yl)amino)-3-oxa-7-azabicyclo[3.3.1]nonan-7-yl)prop-2-en-1-one]
